Each structure is given as a SMILES string. Activity calls are given as the source filed them. The rule behind the calls is not given here.

This note sets out measurements from ChEMBL document CHEMBL5137136, “A Cytotoxic Heterodimeric Cyclic Diarylheptanoid with a Rearranged Benzene Ring from the Seagrass Zostera marina” (J Nat Prod, 2022).

Assay [1] concerns HCT-116. Kind of assay: Cytotoxicity against human HCT-116 cells assessed as reduction in cell viability at 10 uM incubated for 48 hrs by MTT assay relative to control. The class given is functional.
Assay [2] relates to HCT-116. Kind of assay: Cytotoxicity against human HCT-116 cells assessed as reduction in cell viability incubated for 48 hrs by MTT assay. The conditions noted are these: HCT-116, 48 h. Format: functional, cell-based.
Assay [3] deals with HCT-116. Kind of assay: Cytotoxicity against human HCT-116 cells assessed as cell growth inhibition at 10 uM incubated for 48 hrs by MTT assay relative to control. Format: functional.
Assay [4] relates to HCT-116. Kind of assay: Induction of morphological changes in human HCT-116 cells at 10 uM incubated for 48 hrs by phase contrast microscopy analysis. The class given is functional, cell-based.

Regarding `COc1cc(O)c2cc1CC/C=C\C=C\CC1=C(O)C(=O)C=C(O2)[C@H]1C1=Cc2cc(OC)c(O)c3c2[C@@H]1/C=C\CCc1ccc(O)c-3c1`, the Activity in assay [1] is 97%. The IC50 in assay [2] came out at 3.6 µM.

Turning to `COc1cc2c3c(c1O)-c1cc(ccc1O)CC/C=C\[C@@H]3C([C@@H]1C3=CC(=O)[C@@]4(O)Oc5ccc(cc5[C@@H]14)CC/C=C\C=C\C3)=C2`, in assay [3], the inhibition at 10 µM stood at 23%.

`COc1cc2c3c(c1O)-c1cc(ccc1O)CC/C=C\[C@@H]3C([C@@H]1C3=CC(=O)[C@]14C(=O)Oc1ccc(cc14)CC/C=C\C=C\C3)=C2`: the IC50 in assay [2] amounted to 7.6 µM. The result in assay [4] was Active. In assay [3], the inhibition at 10 µM came to 73%.
